In patent US9549921B2, “Heterocyclic compounds and methods of use thereof for the treatment of hepatitis C” (priority 2014, dated 2017):
Read-outs that look alike come from different tables or passages of the source.

Key:
HCV replicon genotype 1b = test: HCV replicon assay, genotype 1b (cell ELISA for NS3/4A); format: cell-based, hepatitis C virus
How it was run: (§1)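 Stable neomycin-resistant replicon cell lines (genotype 1a or 1b) incubated 96 h with compound dilution series without G418. After washing and lysis, replication measured by cell ELISA for replicon-encoded NS3/4A protein; IC50 as % of DMSO control via four-parameter fit.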

HCV replicon genotype 1a = test: HCV replicon assay, genotype 1a (cell ELISA for NS3/4A); format: cell-based, hepatitis C virus
How it was run: as §1

[1] = Hepatitis C virus, 96 h, read-out: 1b IC50 (nM), HCV genotype 1b replicon cells, 96 hours incubation, NS3/4A ELISA readout, % of DMSO control
[2] = Hepatitis C virus, 96 h, read-out: 1a IC50 (nM), HCV genotype 1a replicon cells, 96 hours incubation, NS3/4A ELISA readout, % of DMSO control

SMILES	IC50 (HCV replicon genotype 1b; read-out: 1b IC50, HCV genotype 1b replicon cells, 96 hours incubation, NS3/4A ELISA readout, % of DMSO control)	IC50 (HCV replicon genotype 1a; read-out: 1a IC50, HCV genotype 1a replicon cells, 96 hours incubation, NS3/4A ELISA readout, % of DMSO control)	IC50 (HCV replicon genotype 1b; [1])	IC50 (HCV replicon genotype 1a; [2])
CNC(=O)c1c(-c2ccc(F)cc2)oc2cc(N(C)S(C)(=O)=O)c([C@@H]3CCCN(c4nc5c(F)cccc5[nH]4)C3)cc12 (single isomer, unassigned) [Example 56, 5-(1-(4-fluoro-1H-benzo[d]imidazol-2-yl)piperidin-3-yl)-2-(4-fluorophenyl)-N-methyl-6-(N-methylmethylsulfonamido)benzofuran-3-carboxamide]	23.9 nM	53.7 nM	–	–
CNC(=O)c1c(-c2ccc(F)cc2)oc2cc(N(C)S(C)(=O)=O)c([C@@H]3CCCN(C(=O)c4nc5ccccc5s4)C3)cc12 [Example 69, 5-[1-(1,3-benzothiazol-2-ylcarbonyl)piperidin-3-yl]-2-(4-fluorophenyl)-N-methyl-6-[methyl(methylsulfonyl)amino]-1-benzofuran-3-carboxamide]	–	–	22.8 nM	74.4 nM
CNC(=O)c1c(-c2ccc(F)cc2)oc2cc(N(C)S(C)(=O)=O)c([C@H]3CCCN(C(=O)c4nc5ccc(F)cc5[nH]4)C3)cc12 [Example 92, 5-{(3R)-1-[(6-fluoro-1H-benzimidazol-2-yl)carbonyl]piperidin-3-yl}-2-(4-fluorophenyl)-N-methyl-6-[methyl(methylsulfonyl)amino]-1-benzofuran-3-carboxamide]	–	–	97 nM	274 nM
CNC(=O)c1c(-c2ccc(F)cc2)oc2cc(N(C)S(C)(=O)=O)c([C@@H]3CCCN(c4nc5cc(F)ccc5o4)C3)cc12 (single isomer, unassigned) [Example 52]	–	–	42.6 nM	32.6 nM
CNC(=O)c1c(-c2ccc(F)cc2)oc2cc(N(C)S(C)(=O)=O)c([C@@H]3CCCN(S(=O)(=O)c4ccccc4F)C3)cc12 [Example 119, 2-(4-fluorophenyl)-5-{(3S)-1-[(2-fluorophenyl)sulfonyl]piperidin-3-yl}-N-methyl-6-[methyl(methylsulfonyl)amino]-1-benzofuran-3-carboxamide]	–	–	10.9 nM	24.5 nM
CNC(=O)c1c(-c2ccc(F)cc2)oc2cc(N(C)S(C)(=O)=O)c([C@H]3CCCN(C(=O)c4c[nH]c5cc(F)ccc45)C3)cc12 [Example 102, 5-{(3R)-1-[(6-fluoro-1H-indol-3-yl)carbonyl]piperidin-3-yl}-2-(4-fluorophenyl)-N-methyl-6-[methyl(methylsulfonyl)amino]-1-benzofuran-3-carboxamide]	–	–	295 nM	345 nM
